Results: ChEMBL document CHEMBL5344402, “A multi-target directed ligands strategy for the treatment of Alzheimer's disease: Dimethyl fumarate plus Tranilast modified Dithiocarbate as AChE inhibitor and Nrf2 activator” (Eur J Med Chem, 2022)
pIC50: −log10 of the molar value. Active and inactive are the calls of the source. The rule behind the calls is not given here.

What was measured:
[1] = target: Acetylcholinesterase (Electrophorus electricus, UniProt O42275); assay: Inhibition of electric eel AChE using acetylthiocholine iodide as substrate preincubated for 5 mins followed by substrate addition by DTNB reagent based Ellman's method
Chain of Acetylcholinesterase (Electrophorus electricus, UniProt O42275) (O42275 whole entry): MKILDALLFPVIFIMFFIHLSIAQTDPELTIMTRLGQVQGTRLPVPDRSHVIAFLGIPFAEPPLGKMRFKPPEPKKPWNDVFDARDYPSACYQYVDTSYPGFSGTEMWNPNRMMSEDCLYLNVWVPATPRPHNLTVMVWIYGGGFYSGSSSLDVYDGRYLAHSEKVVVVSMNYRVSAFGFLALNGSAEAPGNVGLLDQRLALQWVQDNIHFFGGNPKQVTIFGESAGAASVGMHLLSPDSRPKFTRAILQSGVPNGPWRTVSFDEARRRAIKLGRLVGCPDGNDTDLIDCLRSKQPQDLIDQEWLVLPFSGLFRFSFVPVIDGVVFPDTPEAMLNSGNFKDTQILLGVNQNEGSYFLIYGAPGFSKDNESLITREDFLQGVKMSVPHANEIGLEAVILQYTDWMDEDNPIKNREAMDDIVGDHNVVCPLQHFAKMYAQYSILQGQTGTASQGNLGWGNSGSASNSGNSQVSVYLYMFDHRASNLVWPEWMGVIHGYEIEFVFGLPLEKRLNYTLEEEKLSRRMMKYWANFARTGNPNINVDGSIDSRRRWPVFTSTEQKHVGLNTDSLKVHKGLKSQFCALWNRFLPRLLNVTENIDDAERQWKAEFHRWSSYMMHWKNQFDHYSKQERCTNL

[2] = target: Cholinesterase (Equus caballus) (UniProt P81908); assay: Inhibition of equine serum BuChE using butyrylthiocholine iodide as substrate at 10 uM preincubated for 5 mins followed by substrate addition by DTNB reagent based Ellman's method relative to control; format: cell-free
Chain of Cholinesterase (Equus caballus) (P81908 whole entry): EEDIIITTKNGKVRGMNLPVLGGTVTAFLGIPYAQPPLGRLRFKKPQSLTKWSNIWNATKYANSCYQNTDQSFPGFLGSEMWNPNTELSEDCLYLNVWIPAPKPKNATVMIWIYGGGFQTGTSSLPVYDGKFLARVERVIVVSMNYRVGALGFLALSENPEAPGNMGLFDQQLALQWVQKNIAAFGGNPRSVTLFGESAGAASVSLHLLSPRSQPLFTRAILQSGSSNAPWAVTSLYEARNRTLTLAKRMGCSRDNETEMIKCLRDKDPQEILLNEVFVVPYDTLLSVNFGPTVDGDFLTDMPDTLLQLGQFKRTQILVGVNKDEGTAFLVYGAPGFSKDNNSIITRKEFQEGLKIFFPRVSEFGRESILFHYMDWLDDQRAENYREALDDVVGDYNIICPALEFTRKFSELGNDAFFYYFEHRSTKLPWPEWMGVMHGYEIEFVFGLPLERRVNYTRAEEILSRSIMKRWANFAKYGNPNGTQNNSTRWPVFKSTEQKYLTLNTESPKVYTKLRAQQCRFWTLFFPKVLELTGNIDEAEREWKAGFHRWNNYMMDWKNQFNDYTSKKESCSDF

[3] = target: Acetylcholinesterase (Homo sapiens, UniProt P22303); assay: Inhibition of human AChE using acetylthiocholine iodide as substrate preincubated for 5 mins followed by substrate addition by DTNB reagent based Ellman's method
Chain of Acetylcholinesterase (Homo sapiens, UniProt P22303) (P22303 whole entry): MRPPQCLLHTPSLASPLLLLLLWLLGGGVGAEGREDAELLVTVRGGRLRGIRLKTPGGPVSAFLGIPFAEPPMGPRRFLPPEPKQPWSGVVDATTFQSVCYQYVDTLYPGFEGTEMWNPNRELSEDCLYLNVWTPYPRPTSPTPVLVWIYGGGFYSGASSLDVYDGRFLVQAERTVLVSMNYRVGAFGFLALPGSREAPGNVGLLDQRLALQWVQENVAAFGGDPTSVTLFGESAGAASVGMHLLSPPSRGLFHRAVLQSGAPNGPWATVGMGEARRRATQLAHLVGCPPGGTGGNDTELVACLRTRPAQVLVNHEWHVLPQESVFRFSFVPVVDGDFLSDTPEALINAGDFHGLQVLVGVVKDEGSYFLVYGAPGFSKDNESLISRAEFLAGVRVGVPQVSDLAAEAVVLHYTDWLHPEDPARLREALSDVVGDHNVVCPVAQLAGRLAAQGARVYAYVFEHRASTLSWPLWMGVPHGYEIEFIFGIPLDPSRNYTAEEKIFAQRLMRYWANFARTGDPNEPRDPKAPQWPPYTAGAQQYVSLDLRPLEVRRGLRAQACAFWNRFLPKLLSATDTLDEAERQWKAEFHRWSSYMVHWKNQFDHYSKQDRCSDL

[4] = target: Cholinesterase (Homo sapiens) (UniProt P06276); assay: Inhibition of human BuChE using butyrylthiocholine iodide as substrate at 10 uM preincubated for 5 mins followed by substrate addition by DTNB reagent based Ellman's method relative to control
Chain of Cholinesterase (Homo sapiens) (P06276 whole entry): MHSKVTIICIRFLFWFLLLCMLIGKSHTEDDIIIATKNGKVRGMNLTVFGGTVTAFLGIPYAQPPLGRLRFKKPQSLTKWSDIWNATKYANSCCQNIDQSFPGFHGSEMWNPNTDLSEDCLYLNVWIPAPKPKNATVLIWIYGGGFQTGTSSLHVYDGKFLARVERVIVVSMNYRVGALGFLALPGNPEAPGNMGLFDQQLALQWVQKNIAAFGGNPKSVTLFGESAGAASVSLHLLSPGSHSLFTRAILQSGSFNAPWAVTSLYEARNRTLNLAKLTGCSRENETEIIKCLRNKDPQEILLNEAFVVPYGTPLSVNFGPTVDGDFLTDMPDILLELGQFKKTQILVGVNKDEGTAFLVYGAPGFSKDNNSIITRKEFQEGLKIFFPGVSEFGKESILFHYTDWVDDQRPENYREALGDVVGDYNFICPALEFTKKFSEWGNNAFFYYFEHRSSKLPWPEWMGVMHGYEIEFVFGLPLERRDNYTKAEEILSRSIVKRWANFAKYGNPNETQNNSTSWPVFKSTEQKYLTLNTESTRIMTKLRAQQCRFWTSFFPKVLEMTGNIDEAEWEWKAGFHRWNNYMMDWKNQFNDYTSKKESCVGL

[5] = in vitro; conditions: PAMPA
[6] = system: BV-2; assay: Cytotoxicity against mouse BV-2 cells upto 10 uM incubated for 24 hrs by CCK-8 assay; format: toxicity, cell-based; conditions: bv-2, 24 h
[7] = system: BV-2; assay: Activation of NRF2/ARE in mouse BV-2 cells assessed as upregulation of NRF2 expression at 7 uM by Western blotting analysis; format: cell-based; conditions: filed as activator, TDE = time-dependent effect
[8] = system: BV-2; assay: Activation of NRF2/ARE in mouse BV-2 cells assessed as upregulation of nuclear NRF2 expression at 7 uM incubated for 4 hrs by Western blotting analysis; format: cell-based; conditions: filed as activator
[9] = system: BV-2; assay: Activation of NRF2/ARE in mouse BV-2 cells assessed as upregulation of cytosolic NRF2 expression at 7 uM incubated for 10 hrs by Western blotting analysis; format: cell-based
[10] = system: BV-2; assay: Activation of NRF2/ARE in mouse BV-2 cells assessed as upregulation of NRF2 expression incubated for 8 hrs by Western blotting analysis; format: cell-based; conditions: filed as activator
[11] = target: T1, Nuclear factor erythroid 2-related factor 2 (Mus musculus) (UniProt Q60795); assay: Activation of NRF2 in mouse BV-2 cells assessed as increase in HO-1 protein expression incubated for 8 hrs by Western blotting analysis; format: cell-based; conditions: filed as activator
T1 sequence (whole entry): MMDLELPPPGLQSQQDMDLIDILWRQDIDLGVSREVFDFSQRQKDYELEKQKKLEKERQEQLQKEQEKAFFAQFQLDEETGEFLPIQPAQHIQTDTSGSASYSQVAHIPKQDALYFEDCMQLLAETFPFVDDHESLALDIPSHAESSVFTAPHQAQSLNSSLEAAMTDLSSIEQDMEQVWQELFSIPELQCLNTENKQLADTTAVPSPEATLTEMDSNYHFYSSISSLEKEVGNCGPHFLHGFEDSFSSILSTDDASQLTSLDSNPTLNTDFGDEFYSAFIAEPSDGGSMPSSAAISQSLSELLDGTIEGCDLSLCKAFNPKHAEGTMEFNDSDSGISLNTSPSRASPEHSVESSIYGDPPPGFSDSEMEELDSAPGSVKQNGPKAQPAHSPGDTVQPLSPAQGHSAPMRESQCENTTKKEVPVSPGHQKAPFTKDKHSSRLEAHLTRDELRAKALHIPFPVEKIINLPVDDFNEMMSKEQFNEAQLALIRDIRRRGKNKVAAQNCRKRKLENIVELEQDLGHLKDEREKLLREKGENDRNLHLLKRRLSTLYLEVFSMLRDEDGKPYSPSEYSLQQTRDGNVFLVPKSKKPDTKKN

[12] = target: T1, Nuclear factor erythroid 2-related factor 2 (Mus musculus); assay: Activation of NRF2 in mouse BV-2 cells assessed as increase in NQO1 protein expression incubated for 8 hrs by Western blotting analysis; format: cell-based; conditions: filed as activator
[13] = target: T1, Nuclear factor erythroid 2-related factor 2 (Mus musculus); assay: Activation of NRF2 in mouse BV-2 cells assessed as increase in GPX4 protein expression incubated for 8 hrs by Western blotting analysis; format: cell-based; conditions: filed as activator
[14] = target: T1, Nuclear factor erythroid 2-related factor 2 (Mus musculus); assay: Activation of NRF2 in mouse BV-2 cells assessed as increase in HO-1 protein expression at 7 uM by Western blotting analysis; format: cell-based; conditions: filed as activator, TDE = time-dependent effect
[15] = target: T1, Nuclear factor erythroid 2-related factor 2 (Mus musculus); assay: Activation of NRF2 in mouse BV-2 cells assessed as increase in NQO1 protein expression at 7 uM by Western blotting analysis; format: cell-based; conditions: filed as activator, TDE = time-dependent effect
[16] = target: T1, Nuclear factor erythroid 2-related factor 2 (Mus musculus); assay: Activation of NRF2 in mouse BV-2 cells assessed as increase in GPX4 protein expression at 7 uM by Western blotting analysis; format: cell-based; conditions: filed as activator, TDE = time-dependent effect
[17] = target: T1, Nuclear factor erythroid 2-related factor 2 (Mus musculus); assay: Activation of NRF2 in mouse BV-2 cells assessed as increase in HO-1 protein expression at 7 uM incubated for 3 to 9 hrs by Western blotting analysis; format: cell-based; conditions: filed as activator, time 3-9 hrs
[18] = target: T1, Nuclear factor erythroid 2-related factor 2 (Mus musculus); assay: Activation of NRF2 in mouse BV-2 cells assessed as increase in NQO1 protein expression at 7 uM incubated for 3 to 9 hrs by Western blotting analysis; format: cell-based; conditions: filed as activator, time 3-9 hrs
[19] = target: T1, Nuclear factor erythroid 2-related factor 2 (Mus musculus); assay: Activation of NRF2 in mouse BV-2 cells assessed as increase in GPX4 protein expression at 7 uM incubated for 3 to 9 hrs by Western blotting analysis; format: cell-based; conditions: filed as activator, time 3-9 hrs
[20] = system: BV-2; assay: Cytoprotective activity against H2O2-induced toxicity in mouse BV-2 cells assessed as increase in cell viability incubated for 6 hrs by CCK-8 assay; format: functional, cell-based
[21] = system: BV-2; assay: Cytoprotective activity against H2O2-induced toxicity in mouse BV-2 cells assessed as decrease in ROS production incubated for 6 hrs by DCFH-DA staining based inverted fluorescence microscopic analysis; format: functional, cell-based
[22] = system: BV-2; assay: Anti-neuroinflammatory activity in mouse BV-2 cells assessed as reduction in LPS-induced NO production incubated for 6 hrs followed by LPS addition measured after 24 hrs by Griess reagent based assay; format: functional, cell-based; conditions: time 30.0 hrs
[23] = system: BV-2; assay: Anti-neuroinflammatory activity in mouse BV-2 cells assessed as reduction in LPS-induced iNOS expression at 1 to 7 uM incubated for 6 hrs followed by LPS addition measured after 24 hrs by Western blotting analysis; format: functional, cell-based; conditions: dose 1-7 µM, time 30.0 hrs
[24] = system: BV-2; assay: Anti-neuroinflammatory activity in mouse BV-2 cells assessed as reduction in LPS-induced COX-2 expression at 1 to 7 uM incubated for 6 hrs followed by LPS addition measured after 24 hrs by Western blotting analysis; format: functional, cell-based; conditions: dose 1-7 µM, time 30.0 hrs
[25] = system: BV-2; assay: Anti-neuroinflammatory activity in mouse BV-2 cells assessed as reduction in LPS-induced TNF-alpha production incubated for 6 hrs followed by LPS addition measured after 24 hrs by ELISA; format: functional, cell-based; conditions: time 30.0 hrs
[26] = system: BV-2; assay: Anti-neuroinflammatory activity in mouse BV-2 cells assessed as reduction in LPS-induced IL-6 production incubated for 6 hrs followed by LPS addition measured after 24 hrs by ELISA; format: functional, cell-based; conditions: time 30.0 hrs
[27] = Stability of the compound in serum (unknown origin) assessed as drug degradation incubated for 8 hrs by HPLC analysis; format: ADME, cell-free
[28] = Drug degradation in serum (unknown origin) incubated for 12 hrs by HPLC analysis; format: ADME, cell-free; conditions: read-out: Drug degradation
[29] = Acute toxicity in Kunming mouse assessed as behavioral abnormalities at 625 to 2500 mg/kg,po administration for 4 hrs; format: organism-based; conditions: in vivo, dose 625-2500 mg/kg
[30] = Acute toxicity in Kunming mouse assessed as change in body weight at 625 to 2500 mg/kg,po administration for 14 days; format: organism-based; conditions: in vivo, 336 h, dose 625-2500 mg/kg, time 14 day
[31] = Acute toxicity in Kunming mouse assessed as heart pathological change at 625 to 2500 mg/kg,po administration for 14 days by Hematoxylin and eosin based staining analysis; format: organism-based; conditions: in vivo, 336 h, dose 625-2500 mg/kg, time 14 day
[32] = Acute toxicity in Kunming mouse assessed as liver pathological change at 625 to 2500 mg/kg,po administration for 14 days by Hematoxylin and eosin based staining analysis; format: organism-based; conditions: in vivo, 336 h, dose 625-2500 mg/kg, time 14 day
[33] = Acute toxicity in Kunming mouse assessed as lung pathological change at 625 to 2500 mg/kg,po administration for 14 days by Hematoxylin and eosin based staining analysis; format: organism-based; conditions: in vivo, 336 h, dose 625-2500 mg/kg, time 14 day
[34] = Acute toxicity in Kunming mouse assessed as kidney pathological change at 625 to 2500 mg/kg,po administration for 14 days by Hematoxylin and eosin based staining analysis; format: organism-based; conditions: in vivo, 336 h, dose 625-2500 mg/kg, time 14 day
[35] = Acute toxicity in Kunming mouse assessed as brain pathological change at 625 to 2500 mg/kg,po administration for 14 days by Hematoxylin and eosin based staining analysis; format: organism-based; conditions: in vivo, 336 h, dose 625-2500 mg/kg, time 14 day
[36] = system: Mus musculus; assay: Antialzheimer activity in scopolamine-induced cognitive impairment Kunming mouse model assessed as increase in latency at po administration by step-down assay; format: functional, organism-based
[37] = system: Mus musculus; assay: Antialzheimer activity in scopolamine-induced cognitive impairment Kunming mouse model assessed as decrease in number of latency error at po administration by step-down assay; format: functional, organism-based
[38] = system: Mus musculus; assay: Antialzheimer activity in scopolamine-induced cognitive impairment Kunming mouse model assessed as increase in latency at 15 mg/kg,po administration by step-down assay; format: functional, organism-based
[39] = system: Mus musculus; assay: Antialzheimer activity in scopolamine-induced cognitive impairment Kunming mouse model assessed as increase in latency at 7.5 mg/kg,po administration by step-down assay; format: functional, organism-based

SMILES: COC(=O)/C=C/C(=O)Nc1cccc(OCCCCSC(=S)N2CCCCC2)c1
- pIC50 [1]: 6.43
- inhibition [2]: < 5%
- pIC50 [3]: 6.68
- inhibition [4]: < 5%
- Papp at 18 h [5]: 15.5 ×10⁻⁶ cm/s

SMILES: COC(=O)/C=C/C(=O)Nc1cccc(OCCCCSC(=S)N2CCC(C)CC2)c1
- pIC50 [1]: 4.71
- inhibition [2]: 8.48%

SMILES: COC(=O)/C=C/C(=O)Nc1cccc(OCCCSC(=S)N2CCCCC2)c1
- pIC50 [1]: 5.62
- inhibition [2]: 13.2%
- pIC50 [3]: 5.70
- inhibition [4]: 7.06%
- Papp at 18 h [5]: 13 ×10⁻⁶ cm/s

SMILES: COC(=O)/C=C/C(=O)Nc1cccc(OCCCCSC(=S)N2CCCCC2C)c1 (stereo not given)
- pIC50 [1]: 7.06
- inhibition [2]: 7.5%
- pIC50 [3]: 7.28
- inhibition [4]: < 5%
- Activity [6]: Non-Toxic
- Activity [7]: Tde
- Activity [8]: Active
- Activity [9]: inactive
- Activity [10]: Dose-Dependent Effect
- Activity [11]: Dose-Dependent Effect
- Activity [12]: Dose-Dependent Effect
- Activity [13]: Dose-Dependent Effect
- Activity [14]: Tde
- Activity [15]: Tde
- Activity [16]: Tde
- Activity [17]: Active
- Activity [18]: Active
- Activity [19]: Active
- Activity [20]: Dose-Dependent Effect
- Activity [21]: Dose-Dependent Effect
- Activity [22]: Dose-Dependent Effect
- Activity [23]: Active
- Activity [24]: Active
- Activity [25]: Dose-Dependent Effect
- Activity [26]: Dose-Dependent Effect
- Stability [27]: Unstable
- metabolised at 12 h [28]: 50%
- Activity [29]: Non-Toxic
- Activity [30]: Non-Toxic
- Activity [31]: Non-Toxic
- Activity [32]: Non-Toxic
- Activity [33]: Non-Toxic
- Activity [34]: Non-Toxic
- Activity [35]: Non-Toxic
- Activity [36]: Dose-Dependent Effect
- Activity [37]: Dose-Dependent Effect
- Activity [38]: Active
- Activity [39]: inactive
- Papp at 18 h [5]: 17.9 ×10⁻⁶ cm/s

SMILES: CCN(CC)C(=S)SCCCCOc1cccc(NC(=O)/C=C/C(=O)OC)c1
- pIC50 [1]: 4.95
- inhibition [2]: > 5%

SMILES: COC(=O)/C=C/C(=O)Nc1cccc(OCCCCSC(=S)N2CCC(N3CCCCC3)CC2)c1
- pIC50 [1]: 4.90
- inhibition [2]: 5.6%

SMILES: COC(=O)/C=C/C(=O)Nc1ccc(OCCCCSC(=S)N2CCCCC2C)cc1 (stereo not given)
- pIC50 [1]: 6.31
- inhibition [2]: 18%
- pIC50 [3]: 6.42
- inhibition [4]: < 5%
- Papp at 18 h [5]: 12.7 ×10⁻⁶ cm/s

SMILES: COC(=O)/C=C/C(=O)Nc1cccc(OCCSC(=S)N2CCCCC2)c1
- pIC50 [1]: 5.59
- inhibition [2]: 12.8%
- pIC50 [3]: 5.86
- inhibition [4]: 6.83%
- Papp at 18 h [5]: 21.3 ×10⁻⁶ cm/s
